Test results as given in US7754772B2, “Nitrosated nonsteroidal antiinflammatory compounds, compositions and methods of use” (NicOx, S.A., priority 2002, dated 2010).

Assays:
[1] = test system: Male Sprague Dawley rats, gastric hemorrhagic lesion; conditions: rat, in vivo, po
Description: Male Sprague Dawley rats (Charles River Laboratories, Wilmington, Mass.) weighing 230-250 g were used for the experiments. The rats were housed with laboratory chow and water ad libitum prior to the study. The rats were fasted for 24 hours with free access to water and then dosed by oral gavage with vehicle or with test compounds given at a volume of 0.5 mL/100 g. […] Rats were euthanized by CO2 three hours after dosing. The stomachs were dissected along the greater curvature, washed with a directed stream of 0.9% saline and pinned open on a sylgard based petri dish for examination of the hemorrhagic lesion. Gastric lesion score was expressed in mm and calculated by summing the length of each lesion.

[2] = test system: Male Sprague-Dawley rats, carrageenan paw edema; test: rat paw edema test (carrageenan), antiinflammatory activity; format: in vivo
Description: The rat paw edema test was used to measure the antiinflammatory activity. The rat paw edema test was performed according to the method of Winter et al, Proc. Soc. […] Male Sprague-Dawley rats (250-275 g) were fasted overnight and dosed by oral gavage with vehicle or suspensions of compound one hour prior to the subplantar injection of 50 μl of 1% suspension of carrageenan. Three hours later, the paw volume was measured and compared with the initial volume measured immediately after carrageenan injection.

[3] = oral gavage one hour prior to subplantar carrageenan, paw volume three hours later, expressed as ratio (Vehicle = 1)

Row | SMILES | Relative Activity Gastric Lesion [1] | Relative Activity Antiinflammation [2, 3] | Relative Activity Antiinflammation ([2]; in vivo, po)
1 | COc1ccc2cc(C(C)C(=O)OCCN(CCO[N+](=O)[O-])c3ccc([N+](=O)[O-])cc3)ccc2c1 (centres unmarked) [Example 4, 2-((2-(Nitrooxy)ethyl)4-nitrophenyl)amino)ethyl 2-(6-methoxy-2-naphthyl) propanoate] | 0.04 | 0.92 | 
2 | COc1ccc2cc([C@H](C)C(=O)OC[C@H](CO[N+](=O)[O-])O[N+](=O)[O-])ccc2c1 [Example 5] | 0.21 |  | 0.45
3 | COc1ccc2cc([C@H](C)C(=O)OCC(=O)N3CCC(CO[N+](=O)[O-])CC3)ccc2c1 [Example 19, 2-(4-((Nitrooxy)methyl)piperidyl)-2-oxoethyl (2S)-2-(6-methoxy(2-naphthyl))propanoate] | 0.30 | 0.60 | 
4 | COc1ccc2cc([C@H](C)C(=O)OCC(=O)N3CCC(CCO[N+](=O)[O-])CC3)ccc2c1 [Example 31, 2-(4-(2-(nitrooxy)ethyl)piperidyl)-2-oxoethyl (2S)-2-(6-methoxy(2-naphthyl))propanoate] | 0.06 | 0.61 | 
5 | COc1ccc2cc([C@H](C)C(=O)Oc3ccccc3C(=O)OCCO[N+](=O)[O-])ccc2c1 [Example 33] | 0.07 | 0.60 | 
6 | COc1ccc2cc([C@H](C)C(=O)Oc3cccc(C(=O)OCCO[N+](=O)[O-])c3)ccc2c1 [Example 36] | 0.57 |  | 0.65
7 | COc1ccc2cc([C@H](C)C(=O)OCC(=O)N3CCN(CCO[N+](=O)[O-])CC3)ccc2c1.Cl [Example 37, 2-(4-(2-(Nitrooxy)ethyl)piperazinyl)-2-oxoethyl (2S)-2-(6-methoxy(2-naphthyl))propanoate hydrogen chloride] | 0.72 |  | 0.56
